Test results from PubChem BioAssay AID1259407 (Chemical Carcinogenesis Research Information System (CCRIS), 2018).
Activity calls are given as the source filed them. How the calls were made is not given here.

System: CCRIS mutagenicity, Ames/micronucleus/aberration tests
Experiment: CCRIS mutagenicity studies
[1] = Test System: AMES SALMONELLA TYPHIMURIUM, Strain/Indicator: TA98, Metabolic Activation: HAMSTER, LIVER, S-9, AROCLOR 1254 (10%), Method: PREINCUBATION
[2] = Test System: AMES SALMONELLA TYPHIMURIUM, Strain/Indicator: TA98, Metabolic Activation: NONE, Method: PREINCUBATION
[3] = Test System: AMES SALMONELLA TYPHIMURIUM, Strain/Indicator: TA98, Metabolic Activation: RAT, LIVER, S-9, AROCLOR 1254 (10%), Method: PREINCUBATION
[4] = Test System: AMES SALMONELLA TYPHIMURIUM, Strain/Indicator: TA100, Metabolic Activation: HAMSTER, LIVER, S-9, AROCLOR 1254 (10%), Method: PREINCUBATION
[5] = Test System: AMES SALMONELLA TYPHIMURIUM, Strain/Indicator: TA100, Metabolic Activation: NONE, Method: PREINCUBATION
[6] = Test System: AMES SALMONELLA TYPHIMURIUM, Strain/Indicator: TA100, Metabolic Activation: RAT, LIVER, S-9, AROCLOR 1254 (10%), Method: PREINCUBATION
[7] = Test System: AMES SALMONELLA TYPHIMURIUM, Strain/Indicator: TA1535, Metabolic Activation: HAMSTER, LIVER, S-9, AROCLOR 1254 (10%), Method: PREINCUBATION
[8] = Test System: AMES SALMONELLA TYPHIMURIUM, Strain/Indicator: TA1535, Metabolic Activation: NONE, Method: PREINCUBATION
[9] = Test System: AMES SALMONELLA TYPHIMURIUM, Strain/Indicator: TA1535, Metabolic Activation: RAT, LIVER, S-9, AROCLOR 1254 (10%), Method: PREINCUBATION
[10] = Test System: AMES SALMONELLA TYPHIMURIUM, Strain/Indicator: TA1537, Metabolic Activation: HAMSTER, LIVER, S-9, AROCLOR 1254 (10%), Method: PREINCUBATION
[11] = Test System: AMES SALMONELLA TYPHIMURIUM, Strain/Indicator: TA1537, Metabolic Activation: NONE, Method: PREINCUBATION
[12] = Test System: AMES SALMONELLA TYPHIMURIUM, Strain/Indicator: TA1537, Metabolic Activation: RAT, LIVER, S-9, AROCLOR 1254 (10%), Method: PREINCUBATION

SMILES	mutagenic call [1]	mutagenic call [2]	mutagenic call [3]	mutagenic call [4]	mutagenic call [5]	mutagenic call [6]	mutagenic call [7]	mutagenic call [8]	mutagenic call [9]	mutagenic call [10]	mutagenic call [11]	mutagenic call [12]	further results
COc1cc(/C=C/C(=O)CC(=O)/C=C/c2ccc(O)c(OC)c2)ccc1O	inactive; negative	inactive; negative	inactive; negative	inactive; negative	inactive; negative	inactive; negative	inactive; negative	inactive; negative	inactive; negative	inactive; negative	inactive; negative	inactive; negative	mutagenic call (End Point: IN VITRO CHROMOSOMAL ABERRATIONS, Test System: CHO CELLS, Metabolic Activation: NONE): active; positive (structural changes); presence of iron significantly decreased number o; mutagenic call (End Point: IN VITRO CHROMOSOMAL ABERRATIONS, Test System: CHO-9 CELLS, Metabolic Activation: NONE): active; positive (structural changes); mutagenic call (End Point: IN VIVO CHROMOSOMAL ABERRATIONS, Test System: BONE MARROW CELLS, Species: RAT, Strain/Sex: WISTAR/MALE, Route: GAVAGE): inactive; negative; curcumin reduced mutagenic effect of cyclophosphamide; mutagenic call (End Point: In vitro chromosomal aberrations, Test System: Chinese hamster ovary (CHO-9) cells, Metabolic Activation: None): active; positive (structural changes); mutagenic call (End Point: In vitro micronucleus, Test System: Human lymphocytes, Metabolic Activation: None): inactive; negative; mutagenic call (Test System: AMES SALMONELLA TYPHIMURIUM, Strain/Indicator: TA98, Metabolic Activation: HAMSTER, LIVER, S-9, AROCLOR 1254, Method: STANDARD PLATE): inactive; negative; mutagenic call (Test System: AMES SALMONELLA TYPHIMURIUM, Strain/Indicator: TA98, Metabolic Activation: NONE, Method: STANDARD PLATE): inactive; negative; mutagenic call (Test System: AMES SALMONELLA TYPHIMURIUM, Strain/Indicator: TA98, Metabolic Activation: RAT, LIVER, S-9, AROCLOR 1254, Method: STANDARD PLATE): inactive; negative; mutagenic call (Test System: AMES SALMONELLA TYPHIMURIUM, Strain/Indicator: TA100, Metabolic Activation: HAMSTER, LIVER, S-9, AROCLOR 1254, Method: STANDARD PLATE): inactive; negative; mutagenic call (Test System: AMES SALMONELLA TYPHIMURIUM, Strain/Indicator: TA100, Metabolic Activation: NONE, Method: STANDARD PLATE): inactive; negative; mutagenic call (Test System: AMES SALMONELLA TYPHIMURIUM, Strain/Indicator: TA100, Metabolic Activation: RAT, LIVER, S-9, AROCLOR 1254, Method: STANDARD PLATE): inactive; negative; mutagenic call (Test System: AMES SALMONELLA TYPHIMURIUM, Strain/Indicator: TA1535, Metabolic Activation: HAMSTER, LIVER, S-9, AROCLOR 1254, Method: STANDARD PLATE): inactive; negative; mutagenic call (Test System: AMES SALMONELLA TYPHIMURIUM, Strain/Indicator: TA1535, Metabolic Activation: NONE, Method: STANDARD PLATE): inactive; negative; mutagenic call (Test System: AMES SALMONELLA TYPHIMURIUM, Strain/Indicator: TA1535, Metabolic Activation: RAT, LIVER, S-9, AROCLOR 1254, Method: STANDARD PLATE): inactive; negative; mutagenic call (Test System: AMES SALMONELLA TYPHIMURIUM, Strain/Indicator: TA1537, Metabolic Activation: HAMSTER, LIVER, S-9, AROCLOR 1254, Method: STANDARD PLATE): inactive; negative; mutagenic call (Test System: AMES SALMONELLA TYPHIMURIUM, Strain/Indicator: TA1537, Metabolic Activation: NONE, Method: STANDARD PLATE): inactive; negative; mutagenic call (Test System: AMES SALMONELLA TYPHIMURIUM, Strain/Indicator: TA1537, Metabolic Activation: RAT, LIVER, S-9, AROCLOR 1254, Method: STANDARD PLATE): inactive; negative; mutagenic call (Test System: AMES SALMONELLA TYPHIMURIUM, Strain/Indicator: TA1538, Metabolic Activation: HAMSTER, LIVER, S-9, AROCLOR 1254, Method: STANDARD PLATE): inactive; negative; mutagenic call (Test System: AMES SALMONELLA TYPHIMURIUM, Strain/Indicator: TA1538, Metabolic Activation: NONE, Method: STANDARD PLATE): inactive; negative; mutagenic call (Test System: AMES SALMONELLA TYPHIMURIUM, Strain/Indicator: TA1538, Metabolic Activation: RAT, LIVER, S-9, AROCLOR 1254, Method: STANDARD PLATE): inactive; negative
COCCOCCOC	inactive; negative	inactive; negative	inactive; negative	inactive; negative	inactive; negative	inactive; negative	inactive; negative	inactive; negative	inactive; negative	inactive; negative	inactive; negative	inactive; negative	
